Source: the NIST ThermoML archive (doi:10.1016/j.tca.2008.12.007)
Values joined by “and” are separate entries in the source; they are usually repeats but may differ in a detail not shown here. Identical values can stand only once.

Assay: xn = mol fraction of the nth substance listed
Conditions: 101 kPa, Liquid, Vibrating tube method

C1CCCNCC1 [azacycloheptane] + O
mass density
Conditions	298.15 K	303.15 K	308.15 K	313.15 K
x2 = 0.0199	–	873.74 kg/m3	869.29 kg/m3	864.83 kg/m3
x2 = 0.0395	–	874.8 kg/m3	870.34 kg/m3	865.87 kg/m3
x2 = 0.0821	–	877.47 kg/m3	872.99 kg/m3	868.49 kg/m3
x2 = 0.1198	–	879.75 kg/m3	875.26 kg/m3	870.75 kg/m3
x2 = 0.1594	–	882.19 kg/m3	877.68 kg/m3	873.16 kg/m3
x2 = 0.1994	–	884.96 kg/m3	880.45 kg/m3	875.92 kg/m3
x2 = 0.2498	–	888.42 kg/m3	883.9 kg/m3	879.35 kg/m3
x2 = 0.3	896.42 kg/m3	891.91 kg/m3	887.38 kg/m3	–
x2 = 0.3499	900.36 kg/m3	895.85 kg/m3	891.32 kg/m3	–
x2 = 0.4	904.32 kg/m3	899.81 kg/m3	895.28 kg/m3	–
x2 = 0.4529	908.96 kg/m3	904.46 kg/m3	899.94 kg/m3	–
x2 = 0.5008	913.38 kg/m3	908.91 kg/m3	904.4 kg/m3	–
x2 = 0.5041	913.38 kg/m3	908.91 kg/m3	904.4 kg/m3	–
x2 = 0.5508	917.93 kg/m3	913.48 kg/m3	909 kg/m3	–
x2 = 0.5992	922.72 kg/m3	918.31 kg/m3	913.86 kg/m3	–
x2 = 0.65	928.22 kg/m3	923.88 kg/m3	919.49 kg/m3	–
x2 = 0.699	933.9 kg/m3	929.63 kg/m3	925.32 kg/m3	–
x2 = 0.7496	940.36 kg/m3	936.22 kg/m3	932.02 kg/m3	–
x2 = 0.7994	947.71 kg/m3	943.73 kg/m3	939.69 kg/m3	–
x2 = 0.8398	954.47 kg/m3	950.68 kg/m3	946.83 kg/m3	–
x2 = 0.8799	962.45 kg/m3	958.91 kg/m3	955.31 kg/m3	–
x2 = 0.92	972.24 kg/m3	969.1 kg/m3	965.86 kg/m3	–
x2 = 0.9597	984.66 kg/m3 and 984.68 kg/m3	–	–	–
x2 = 0.9599	984.54 kg/m3	981.98 kg/m3	979.29 kg/m3	–
x2 = 0.96	984.61 kg/m3	982.04 kg/m3	979.35 kg/m3	–
x2 = 0.9699	988.16 kg/m3	985.8 kg/m3	983.3 kg/m3	–
x2 = 0.9798	991.9 kg/m3	–	–	–
x2 = 0.98	991.86 kg/m3	989.75 kg/m3	987.48 kg/m3	–
x2 = 0.9851	993.77 kg/m3	–	–	–
x2 = 0.9882	994.59 kg/m3	–	–	–
x2 = 0.9899	994.98 kg/m3	–	–	–
x2 = 0.9921	995.43 kg/m3	–	–	–
x2 = 0.994	995.81 kg/m3	–	–	–
